What all share (type): functional
Assay [1] has as its system Acinetobacter baumannii. Put plainly: Antibacterial activity against blaOXA-24-positive Acinetobacter baumannii isolate RUH134 harboring plasmid ABVA01 by CLSI broth microdilution method.
The test system of assay [2] is Acinetobacter baumannii. As to the kind of experiment: Antibacterial activity against blaOXA-24-positive Acinetobacter baumannii isolate RUH134 by CLSI broth microdilution method. Background: In broth dilution the organism is exposed to a series of concentrations in liquid medium.
For assay [3], the system named is Acinetobacter baumannii. As to the kind of experiment: Antibacterial activity against blaOXA-24-positive Acinetobacter baumannii isolate N50 by CLSI broth microdilution method.
Assay [4] relates to Acinetobacter baumannii. Put plainly: Antibacterial activity against blaOXA-24-positive Acinetobacter baumannii isolate VA-566/00 by CLSI broth microdilution method.
The subject of assay [5] is Acinetobacter baumannii. Put plainly: Antibacterial activity against blaOXA-24-positive Acinetobacter baumannii isolate N50 by CLSI broth microdilution method in presence of Sulbactam.
In assay [6] the test system is Acinetobacter baumannii. As to the kind of experiment: Antibacterial activity against blaOXA-24-positive Acinetobacter baumannii isolate RUH134 by CLSI broth microdilution method in presence of Sulbactam.
The subject of assay [7] is Acinetobacter baumannii. As to the kind of experiment: Antibacterial activity against blaOXA-24-positive Acinetobacter baumannii isolate VA-566/00 by CLSI broth microdilution method in presence of Sulbactam.
The test system of assay [8] is Acinetobacter baumannii. Put plainly: Antibacterial activity against blaOXA-24-positive Acinetobacter baumannii isolate RUH134 harboring plasmid ABVA01 by CLSI broth microdilution method in presence of Sulbactam.

Data on eight compounds can be found in ChEMBL document CHEMBL1649555, “Characterization of pABVA01, a plasmid encoding the OXA-24 carbapenemase from Italian isolates of Acinetobacter baumannii” (2009).

Values after ≈ are worked out from the molar mass of the structure shown. Bounds are passed on as bounds.

One may read the MIC as the lowest concentration found to suppress growth.

Consider `NCC[C@H](O)C(=O)N[C@@H]1C[C@H](N)[C@@H](O[C@H]2O[C@H](CN)[C@@H](O)[C@H](O)[C@H]2O)[C@H](O)[C@H]1O[C@H]1O[C@H](CO)[C@@H](O)[C@H](N)[C@H]1O` [AMIKACIN], for which the MIC in the assay with Acinetobacter baumannii [1] is 4 µg/mL (≈ 6.83 µM); with Acinetobacter baumannii [2] it was 4 µg/mL (≈ 6.83 µM); in the assay with Acinetobacter baumannii [3], 256 µg/mL (≈ 437 µM); with Acinetobacter baumannii [4] it was 64 µg/mL (≈ 109 µM).
As to `CC1(C)S[C@@H]2[C@H](NC(=O)[C@H](N)c3ccccc3)C(=O)N2[C@H]1C(=O)O` [AMPICILLIN], the MIC with Acinetobacter baumannii [5] was determined as 32 µg/mL; in the assay with Acinetobacter baumannii [6], 64 µg/mL; with Acinetobacter baumannii [7] it was 64 µg/mL; in the assay with Acinetobacter baumannii [8], 64 µg/mL.
Regarding `CC(C)(O/N=C(\C(=O)N[C@@H]1C(=O)N2C(C(=O)[O-])=C(C[n+]3ccccc3)CS[C@H]12)c1csc(N)n1)C(=O)O` [CEFTAZIDIME], the MIC with Acinetobacter baumannii [1] is 16 µg/mL (≈ 29.3 µM); with Acinetobacter baumannii [2] it was 16 µg/mL (≈ 29.3 µM); against Acinetobacter baumannii [3], greater than 256 µg/mL; against Acinetobacter baumannii [4] it was greater than 256 µg/mL.
Turning to `C[C@@H](O)[C@H]1C(=O)N2C(C(=O)O)=C(SCCNC=N)C[C@H]12` [IMIPENEM ANHYDROUS], the MIC against Acinetobacter baumannii [1] amounted to 64 µg/mL (≈ 214 µM); in the assay on Acinetobacter baumannii [2], 0.25 µg/mL (≈ 0.835 µM); with Acinetobacter baumannii [3], 128 µg/mL (≈ 428 µM); with Acinetobacter baumannii [4] it was 256 µg/mL (≈ 855 µM).
For the compound `C[C@@H](O)[C@H]1C(=O)N2C(C(=O)O)=C(S[C@@H]3CN[C@H](C(=O)N(C)C)C3)[C@H](C)[C@H]12` [MEROPENEM], the minimum inhibitory concentration (MIC) with Acinetobacter baumannii [1] is 128 µg/mL (≈ 334 µM); against Acinetobacter baumannii [2], 1 µg/mL (≈ 2.61 µM); in the assay on Acinetobacter baumannii [3], 128 µg/mL (≈ 334 µM); in the assay with Acinetobacter baumannii [4], 256 µg/mL (≈ 668 µM).
For the compound `CN(C)c1cc(NC(=O)CNC(C)(C)C)c(O)c2c1C[C@H]1C[C@H]3[C@H](N(C)C)C(O)=C(C(N)=O)C(=O)[C@@]3(O)C(O)=C1C2=O` [TIGECYCLINE], the MIC against Acinetobacter baumannii [1] was 1 µg/mL (≈ 1.71 µM); in the assay on Acinetobacter baumannii [2] it was 1 µg/mL (≈ 1.71 µM); in the assay on Acinetobacter baumannii [3], 1 µg/mL (≈ 1.71 µM); with Acinetobacter baumannii [4] it was 4 µg/mL (≈ 6.83 µM).
For the compound COLISTIN, the MIC was 0.5 µg/mL in the assay on Acinetobacter baumannii [1], 0.5 µg/mL with Acinetobacter baumannii [2], greater than 8 µg/mL with Acinetobacter baumannii [3] and 0.5 µg/mL in the assay on Acinetobacter baumannii [4].
With GENTAMICIN, the MIC against Acinetobacter baumannii [1], with Acinetobacter baumannii [2], against Acinetobacter baumannii [3] and in the assay on Acinetobacter baumannii [4] was greater than 256 µg/mL throughout.
